Entries after “also recorded” stand apart in the source; their conditions may differ.
Key:
XOD (xanthine oxidase) = XOD (xanthine oxidase) (Homo sapiens, UniProt P47989); test: In vitro XOD enzyme activity inhibition (xanthine substrate, uric acid measured at 290 nm); format: biochemical; settings: for inhibition at 1000 µM: compound concentration 1 mM (FIG. 11), read-out: xanthine oxidase inhibitory activity at 1 mM; for IC50: in vitro, inhibitor co-reacted with XOD 10 min, xanthine substrate, 290 nm, read-out: XOI IC50 (XOD inhibitory activity)
XOD (xanthine oxidase), sequence (P47989 whole entry, species assumed): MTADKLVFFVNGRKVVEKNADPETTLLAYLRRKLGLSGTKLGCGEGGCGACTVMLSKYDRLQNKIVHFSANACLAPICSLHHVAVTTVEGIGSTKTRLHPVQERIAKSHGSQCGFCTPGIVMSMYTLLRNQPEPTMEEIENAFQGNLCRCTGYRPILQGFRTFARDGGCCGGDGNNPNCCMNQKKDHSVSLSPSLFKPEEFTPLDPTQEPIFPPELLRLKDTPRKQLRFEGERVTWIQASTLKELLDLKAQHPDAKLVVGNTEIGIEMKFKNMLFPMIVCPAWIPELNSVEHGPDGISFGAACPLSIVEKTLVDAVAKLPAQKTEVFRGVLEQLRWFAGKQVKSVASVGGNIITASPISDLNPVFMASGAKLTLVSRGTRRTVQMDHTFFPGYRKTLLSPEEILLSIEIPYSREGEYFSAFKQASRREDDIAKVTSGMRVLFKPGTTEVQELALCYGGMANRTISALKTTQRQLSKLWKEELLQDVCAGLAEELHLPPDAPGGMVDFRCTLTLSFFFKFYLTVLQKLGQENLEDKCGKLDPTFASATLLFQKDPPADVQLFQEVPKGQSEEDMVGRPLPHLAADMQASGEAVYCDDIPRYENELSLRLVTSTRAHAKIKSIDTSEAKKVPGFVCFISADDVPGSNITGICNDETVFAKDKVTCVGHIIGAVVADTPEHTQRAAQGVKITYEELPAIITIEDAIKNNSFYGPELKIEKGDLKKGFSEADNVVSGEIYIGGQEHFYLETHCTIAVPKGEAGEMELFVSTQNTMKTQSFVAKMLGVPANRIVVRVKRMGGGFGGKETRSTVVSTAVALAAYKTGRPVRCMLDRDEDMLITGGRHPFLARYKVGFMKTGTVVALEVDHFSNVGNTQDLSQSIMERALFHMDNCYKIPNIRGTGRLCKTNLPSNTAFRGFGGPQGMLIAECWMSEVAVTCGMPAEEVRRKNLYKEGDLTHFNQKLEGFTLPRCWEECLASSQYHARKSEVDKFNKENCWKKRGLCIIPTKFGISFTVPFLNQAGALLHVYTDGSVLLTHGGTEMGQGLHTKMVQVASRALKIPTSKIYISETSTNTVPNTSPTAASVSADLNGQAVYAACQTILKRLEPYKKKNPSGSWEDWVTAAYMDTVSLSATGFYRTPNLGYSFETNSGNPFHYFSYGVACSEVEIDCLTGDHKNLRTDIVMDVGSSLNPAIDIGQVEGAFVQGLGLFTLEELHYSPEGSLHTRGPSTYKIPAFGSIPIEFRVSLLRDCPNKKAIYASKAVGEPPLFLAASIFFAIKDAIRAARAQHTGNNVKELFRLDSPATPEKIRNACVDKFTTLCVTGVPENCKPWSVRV
Method: The inhibitory effect of quinoline structural analogs on XOD was evaluated by co-reacting an inhibitor with XOD for 10 min, adding a certain concentration of a reaction substrate xanthine, and measuring the amount of uric acid produced at 290 nm.

XOD [1] = molecular target: T1, XOD (Mus musculus, UniProt Q00519); test: Serum XOD enzyme activity in hyperuricemic mice (colorimetric kit); format: in vivo, Kunming mice; settings: day 21, vs model group (p<0.01), KA 7, 35, 70 mM/kg/day, allopurinol 35 mM/kg/day
T1 construct: from tissue; host or cells: liver homogenate of male Kunming mice (hyperuricemia model)
T1 sequence (Q00519 whole entry): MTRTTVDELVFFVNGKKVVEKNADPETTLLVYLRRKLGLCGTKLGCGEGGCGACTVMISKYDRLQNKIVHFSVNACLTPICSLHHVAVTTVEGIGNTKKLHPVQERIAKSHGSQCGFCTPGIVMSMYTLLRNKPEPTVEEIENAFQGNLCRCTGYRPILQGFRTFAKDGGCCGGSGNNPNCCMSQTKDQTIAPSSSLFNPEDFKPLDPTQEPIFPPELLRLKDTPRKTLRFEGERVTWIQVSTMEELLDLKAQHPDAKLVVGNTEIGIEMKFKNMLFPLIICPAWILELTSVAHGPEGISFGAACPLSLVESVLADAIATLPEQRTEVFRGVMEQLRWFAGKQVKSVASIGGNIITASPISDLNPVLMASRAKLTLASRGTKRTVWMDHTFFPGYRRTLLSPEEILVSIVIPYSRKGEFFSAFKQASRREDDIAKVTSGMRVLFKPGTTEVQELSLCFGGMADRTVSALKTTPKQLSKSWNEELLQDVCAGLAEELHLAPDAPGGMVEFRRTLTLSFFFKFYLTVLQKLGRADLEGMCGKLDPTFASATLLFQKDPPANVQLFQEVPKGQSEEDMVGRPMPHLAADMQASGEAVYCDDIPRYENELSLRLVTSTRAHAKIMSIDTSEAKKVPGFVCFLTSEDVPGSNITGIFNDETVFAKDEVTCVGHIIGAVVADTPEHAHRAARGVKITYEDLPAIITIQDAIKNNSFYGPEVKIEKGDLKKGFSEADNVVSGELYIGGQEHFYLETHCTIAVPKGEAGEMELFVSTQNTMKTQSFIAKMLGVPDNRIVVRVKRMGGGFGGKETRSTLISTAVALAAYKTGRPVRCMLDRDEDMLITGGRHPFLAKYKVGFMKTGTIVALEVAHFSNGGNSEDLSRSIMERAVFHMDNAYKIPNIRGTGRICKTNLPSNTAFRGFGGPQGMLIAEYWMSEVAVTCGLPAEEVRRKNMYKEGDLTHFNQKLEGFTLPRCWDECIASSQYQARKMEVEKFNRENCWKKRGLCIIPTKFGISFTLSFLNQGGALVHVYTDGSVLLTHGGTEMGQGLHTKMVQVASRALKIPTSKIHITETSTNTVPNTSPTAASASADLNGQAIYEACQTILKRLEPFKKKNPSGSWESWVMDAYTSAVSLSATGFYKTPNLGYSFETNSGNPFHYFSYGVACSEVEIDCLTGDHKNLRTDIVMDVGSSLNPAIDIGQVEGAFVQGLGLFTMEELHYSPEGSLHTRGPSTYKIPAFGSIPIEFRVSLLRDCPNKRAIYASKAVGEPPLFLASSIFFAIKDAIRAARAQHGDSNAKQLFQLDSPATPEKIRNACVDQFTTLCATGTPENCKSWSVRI
Method: (§1) The normal control group received daily gavage of an equal amount of CMC-Na solution and injection of an equal amount of saline, and the remaining groups received daily gavage of 500 mg/kg hypoxanthine (HX) and intraperitoneal injection of 300 mg/kg potassium oxazinate (PO). […] Oral gavage was continued for 21 days. Data were analyzed for correlation and significance by using SPSS 23.0 software, and differences between the groups were compared by using one-way ANOVA, *p<0.05 indicates a significant difference, **p<0.01 indicates a very significant difference, and the data were expressed as X±SD.
After sufficient blood samples were collected, they were allowed to stand at room temperature for 30 min and then centrifuged (3500 rpm, 10 min). A supernatant was taken and stored at −20° C. for standby application.

[2] = Body weight of hyperuricemic mice; format: in vivo, Kunming mice; settings: hyperuricemic mice (HX + PO), daily gavage KA 7, 35 or 70 mM/kg, 21 days
Method: SPF-grade male Kunming mice (8 weeks old), 35±5 g, were purchased from Changzhou Cavens Laboratory Animal Co., Ltd. Animal quality was tested by Suzhou Xishan Biotechnology Co., Ltd.
Experimental mice were housed in a clean animal feeding room, and feeding and experimental operations were performed according to the standards of the Animal Experimental Center, and the animal feeding room and an operating workbench were cleaned and disinfected daily. All experimental mice were housed in a comfortable environment (temperature: 25±2° C., humidity: 40%-70%, 12 hours of day and night cycle) with good ventilation and daily supplementation of feed and drinking water.
36 SPF-grade male Kunming mice with relatively consistent posture and good health were randomly divided into a normal control group, a model group, a positive control group, a kynurenic acid low dose group (KA-L), a kynurenic acid medium dose group (KA-M) and a kynurenic acid high dose group (KA-H), with six experimental mice in each group. […] Data were analyzed for correlation and significance by using SPSS 23.0 software, and differences between the groups were compared by using one-way ANOVA, *p<0.05 indicates a significant difference, **p<0.01 indicates a very significant difference, and the data were expressed as X±SD. […]

[3] = test system: adenosine deaminase (ADA); test: Serum adenosine deaminase activity (ADA) in hyperuricemic mice (peroxidase method kit); format: in vivo, Kunming mice
Excerpt: (§2) 36 SPF-grade male Kunming mice with relatively consistent posture and good health were randomly divided into a normal control group, a model group, a positive control group, a kynurenic acid low dose group (KA-L), a kynurenic acid medium dose group (KA-M) and a kynurenic acid high dose group (KA-H), with six experimental mice in each group. The normal control group received daily gavage of an equal amount of CMC-Na solution and injection of an equal amount of saline, and the remaining groups received daily gavage of 500 mg/kg hypoxanthine (HX) and intraperitoneal injection of 300 mg/kg potassium oxazinate (PO). […] Oral gavage was continued for 21 days. Data were analyzed for correlation and significance by using SPSS 23.0 software, and differences between the groups were compared by using one-way ANOVA, *p<0.05 indicates a significant difference, **p<0.01 indicates a very significant difference, and the data were expressed as X±SD.
At the end of the experiment on day 21, the mice in each group of Example 1 were subjected to blood collection from eyeballs of living bodies after being fasted for solids and liquids for 12 h. […]
Serum samples of Example 2 were taken, and ADA enzyme activity levels in the mouse serum samples were determined by using an adenosine deaminase activity (ADA) assay kit (a peroxidase method).

hyperuricemic mice [4] = test: Hepatic uric acid in hyperuricemic mice; format: in vivo, Kunming mice; settings: liver homogenate, day 21 (p<0.01); KA 7, 35, 70 mM/kg/day; allopurinol 35 mM/kg/day
Excerpt: as §2
Serum uric acid levels in target mice were detected by using a uric acid (UA) test kit. […]
On day 21, the mice in each group of Example 1 were quickly sacrificed by cervical dislocation after being fasted for solids and liquids for 12 h and livers were collected for weighing and subpackaging. […] Uric acid levels in the mouse liver homogenate samples were determined by using the method described in Example 2. […]

hyperuricemic mice [5] = test: Blood urea nitrogen (BUN) in hyperuricemic mice; format: in vivo, Kunming mice
Excerpt: as §2, with “X±SD. […]” for “X±SD.”
Serum samples of Example 2 were taken and the blood urea nitrogen (BUN) content in the mouse serum samples was measured by using a blood urea nitrogen (BUN) assay kit (a urease method), and experimental operations and data calculation were performed in strict accordance with the kit instructions.

hyperuricemic mice [6] = test: Serum uric acid in hyperuricemic mice (UA test kit); format: in vivo, Kunming mice; settings: for serum uric acid level: hyperuricemic mice, day 21, vs model group (p<0.01), KA 7, 35, 70 mM/kg/day, allopurinol 35 mM/kg/day, gavage
Method: as §1
At the end of the experiment on day 21, the mice in each group of Example 1 were subjected to blood collection from eyeballs of living bodies after being fasted for solids and liquids for 12 h. After sufficient blood samples were collected, they were allowed to stand at room temperature for 30 min and then centrifuged (3500 rpm, 10 min). A supernatant was taken and stored at −20° C. for standby application.
Serum uric acid levels in target mice were detected by using a uric acid (UA) test kit. The serum uric acid level is an important evaluation index of drug improvement in hyperuricemia.

XOD [7] = molecular target: T1, XOD; test: Hepatic XOD enzyme activity in hyperuricemic mice; format: in vivo, Kunming mice; settings: liver homogenate, day 21, vs model group (p<0.01); KA 7, 35, 70 mM/kg/day
Excerpt: as §2
Serum samples of Example 2 were taken, and the XOD enzyme activity levels in the mouse serum samples were determined by using a xanthine oxidase (XOD) assay kit (a colorimetric method), and experimental operations and data calculation were performed in strict accordance with the kit instructions. […]

hyperuricemic mice [8] = test: Serum creatinine (CRE) in hyperuricemic mice; format: in vivo, Kunming mice; settings: day 21, vs model group (p<0.01), KA 7, 35, 70 mM/kg/day
Excerpt: as §2, with “X±SD. […]” for “X±SD.”
Serum samples of Example 2 were taken and the CRE content of the mouse serum samples was measured by using a creatinine (CRE) assay kit (sarcosine oxidation), and experimental operations and data calculation were performed in strict accordance with the kit instructions.

[9] = hyperuricemic mice, day 21, vs model group (p<0.01), KA 7, 35, 70 mM/kg/day

Row | inhibition at 1000 µM (XOD (xanthine oxidase)) | IC50 (XOD (xanthine oxidase)) | SMILES | hepatic uric acid level (hyperuricemic mice [4]) | serum uric acid level (hyperuricemic mice [6]) | also measured
1 | > 50% | 500 ± 130 µM | O=C(O)c1cnc2ccc(O)cc2c1 [Compound 5, 6-Hydroxyquinoline-3-carboxylic acid] | – | – | –
2 | – | 5650 ± 100 µM | CCOC(=O)c1cc(O)c2ccccc2n1 [Compound 7, Ethyl 4-hydroxyquinoline-2-carboxylate] | – | – | –
3 | – | 1610 ± 70 µM | O=C(O)c1cc(O)nc2ccccc12 [Compound 11, 2-Hydroxyquinoline-4-carboxylic acid] | – | – | –
4 | > 50% | 970 ± 50 µM | O=C(O)c1nc2ccccc2cc1O [Compound 13, 3-Hydroxyquinoline-2-carboxylic acid] | – | – | –
5 | – | 1990 ± 260 µM | O=C(O)c1cc(O)c2ccccc2n1 [KA, Kynurenic acid] | reduce hepatic UA levels in a concentration-dependent manner; also recorded: reduce hepatic uric acid levels in a concentration-dependent manner; also recorded: gradient decline | significantly reduce | serum XOD enzyme activity (XOD [1]): reduce serum XOD enzyme activity in hyperuricemic mice to varying degrees; growth status and body weight [2]: no significant effect; also recorded: no significant impact; also recorded: did not affect; serum ADA enzyme activity, comparison among KA doses ([3]; KA-H, 70 mM/kg/day, day 21): the most significant; serum ADA enzyme activity [3, 9]: effectively reduce; also recorded: significantly reduced; BUN level compared with the positive control group (hyperuricemic mice [5]; KA-M and KA-H (35 and 70 mM/kg/day) vs allopurinol 35 mM/kg/day (p<0.01)): reduce BUN levels in the mice more significantly; blood urea nitrogen (BUN) level (hyperuricemic mice [5]; [9]): significantly reduces; also recorded: significantly decrease; serum uric acid level, comparison among KA doses (hyperuricemic mice [6]; KA-H, 70 mM/kg/day, day 21): most pronounced; hepatic XOD enzyme activity (XOD [7]): effectively inhibit; also recorded: decreased significantly; serum creatinine (CRE) level (hyperuricemic mice [8]): significantly reduces; also recorded: significantly decrease
6 | – | – | Oc1ncnc2[nH]ncc12 [allopurinol, reference compound] | significantly reduced | significantly inhibited the increase | xanthine oxidase inhibitory activity at various concentrations (XOD (xanthine oxidase); FIG. 10A to 10R): concentration-dependent

From patent US20250275954A1, “USE OF KYNURENIC ACID RESISTING HYPERURICEMIA AND STRUCTURAL ANALOG THEREOF IN PREPARATION OF XOD INHIBITOR” (JIMEI UNIVERSITY, priority 2023, published 2025)
